This test concerns the target T1, CXCR4 (Homo sapiens, UniProt P61073).
T1 construct: Human T lymphoblast cells (CCRF-CEM) expressing endogenous CXCR4 receptors; endogenous in cells; host or cells: CCRF-CEM (human T lymphoblast cells)
The test is described as follows: CXCR4-CEM calcium flux assay, antagonist mode (inhibition of SDF-1α-induced calcium flux). The conditions noted are these: CCRF-CEM cells expressing endogenous CXCR4, stimulated with 4 nM SDF-1α, read-out: CXCR4 Ca^2+ Flux IC50. The test is classed as cell-based. The protocol: CXCR4-CEM Calcium Flux Assays
Exemplary compounds of the invention were tested for their ability to induce or inhibit calcium flux in CCRF-CEM cells, a human cell line that endogenously expresses CXCR4. Activation of CXCR4 stimulates G protein signaling which, in CCRF-CEM cells, causes a series of downstream events that leads to the release of intracellular calcium stores, or calcium flux. Calcium ion concentrations can be easily measured using a wide variety of […] calcium indicators and, as a result, calcium flux assays are commonly employed methods for measuring G protein-coupled receptor (GPCR) activity. Because the therapeutic potential of CXCR4 antagonists as anti-cancer agents likely relies on their ability to inhibit CXCR4-mediated G protein signaling, this assay was utilized as a first-pass measure of inhibitor potency.
The cells were then equilibrated to room temperature for 30 minutes before assay. […] For “antagonist mode” assessment, the cells are subsequently incubated for 25 minutes at room temperature. SDF-1α (R&D System Cat #350-NS/CF) was then added at a final concentration of 4 nM to stimulate the cells. Inhibition of SDF-1α-induced calcium flux was monitored by FDSS6000 for 90 seconds.
After correcting for background, EC50 values were determined. […] Inhibition data for the test compound over a range of concentrations was plotted as percentage inhibition of the test compound as compared to an internal control compound.

T1 sequence (P61073 whole entry): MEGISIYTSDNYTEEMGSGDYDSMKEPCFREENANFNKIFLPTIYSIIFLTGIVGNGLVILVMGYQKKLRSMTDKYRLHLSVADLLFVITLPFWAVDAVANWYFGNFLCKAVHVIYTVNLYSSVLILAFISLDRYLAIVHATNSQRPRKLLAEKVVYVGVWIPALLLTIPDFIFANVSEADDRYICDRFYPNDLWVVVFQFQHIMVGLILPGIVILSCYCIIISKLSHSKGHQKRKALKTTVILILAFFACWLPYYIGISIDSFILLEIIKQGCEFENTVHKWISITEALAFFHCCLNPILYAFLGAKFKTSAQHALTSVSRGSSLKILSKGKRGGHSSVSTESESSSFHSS

For orientation: IC50 means the midpoint of a concentration-inhibition curve. Take `NC/C=C\CN(CC1Cc2ncccc2CN1)[C@H]1CCCc2cccnc21` (single isomer, unassigned) [EMU142 (Stereoisomer 2)]: the IC50 stood at 503 nM.

Take `CN(CC1Cc2ncccc2CN1)[C@H]1CCCc2cccnc21` (single isomer, unassigned) [EMU174 (Stereoisomer 1)]: the IC50 was over 33300 nM.

As to `NC(=O)NC/C=C\CN(CC1Cc2ncccc2CN1)[C@H]1CCCc2cccnc21` (single isomer, unassigned) [EMU209 (Stereoisomer 1)], the IC50 stood at 463 nM.

Take `CC(C)N(C[C@H]1Cc2c(cccc2N2CCNCC2)CN1)[C@H]1CCCc2cccnc21` [EMU163]: the IC50 is 364 nM.

Turning to `C[C@@H]1CN(c2cccc3c2CC(CN(C)[C@H]2CCCc4cccnc42)NC3)C[C@H](C)N1` (single isomer, unassigned) [EMU096 (Stereoisomer 2)], the IC50 is 3840 nM.

As to `CN(C[C@H]1Cc2c(cccc2NCCN2CCOCC2)CN1)[C@H]1CCCc2cccnc21` [EMU173, (S)—N-methyl-N—(((R)-5-((2-morpholinoethyl)amino)-1,2,3,4-tetrahydroisoquinolin-3-yl)methyl)-5,6,7,8-tetrahydroquinolin-8-amine], the 50% inhibitory concentration (IC50) was 21.5 nM.

With `NCC1CC1CN(C[C@H]1Cc2ccccc2CN1)[C@H]1CCCc2cccnc21` (single isomer, unassigned) [EMU030 (Stereoisomer 2)], the IC50 was determined as 19.1 nM.

As to `NCc1ccc(CN(CC2Cc3ncccc3CN2)[C@H]2CCCc3cccnc32)cc1` (single isomer, unassigned) [EMU194], the IC50 stood at 111 nM.
